Each structure is given as a SMILES string. Active and inactive are the calls of the source.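 Rule for the calls: active = maximal inhibition of USP17 at or above 30% in the confirmation dose-response, a value not among the printed readouts; inactive = the rest.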

A word on the IC50: it is the concentration at which inhibition is half-maximal.

The target in the assay is Ubiquitin carboxyl-terminal hydrolase 17-like protein 5 (Homo sapiens) (UniProt A8MUK1). The assay can be described thus: ubiquitin-specific protease 17 inhibitors, concentration series, biochemical, verification of primary actives (AID 1645864). The conditions noted are these: purified USP17, ubiquitin-rhodamine cleavage fluorescence, 3 h.
Chain of Ubiquitin carboxyl-terminal hydrolase 17-like protein 5 (Homo sapiens) (A8MUK1 whole entry, looked up): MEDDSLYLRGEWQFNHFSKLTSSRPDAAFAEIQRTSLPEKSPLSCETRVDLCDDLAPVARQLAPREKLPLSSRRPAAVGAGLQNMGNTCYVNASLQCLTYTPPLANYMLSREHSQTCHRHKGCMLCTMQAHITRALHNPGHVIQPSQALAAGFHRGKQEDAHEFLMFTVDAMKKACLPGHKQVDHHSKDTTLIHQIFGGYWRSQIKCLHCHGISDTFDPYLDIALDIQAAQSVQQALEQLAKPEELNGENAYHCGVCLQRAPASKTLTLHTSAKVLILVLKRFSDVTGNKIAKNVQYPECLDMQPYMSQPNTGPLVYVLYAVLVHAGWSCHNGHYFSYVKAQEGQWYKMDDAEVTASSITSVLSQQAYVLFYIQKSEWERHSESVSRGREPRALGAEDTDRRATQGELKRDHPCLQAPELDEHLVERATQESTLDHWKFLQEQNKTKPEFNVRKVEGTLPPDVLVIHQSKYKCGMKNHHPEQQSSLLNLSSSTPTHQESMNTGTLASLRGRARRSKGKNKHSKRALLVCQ
Turning to `COc1ccc(-c2cc(-c3ccc(O)cc3)nc(N)c2C#N)cc1OC`, the IC50 is > 50 µM (inactive). Consider `Cc1ccccc1Cn1cc(SCC(=O)Nc2ccc3c(c2)OCCO3)c2ccccc21`, for which the IC50 was > 50 µM (inactive).

Take `COc1cccc(/C=C/c2nc(C#N)c(N3CCN(C(=O)c4cccs4)CC3)o2)c1`: the IC50 is > 50 µM (inactive). Take `O=C(COc1ccc2oc3c(c2c1)CCCC3)Nc1ccccn1`: the half-maximal inhibitory concentration (IC50) was 25.4 µM. Take `O=C(Nc1ccccc1Br)c1ccn(COc2ccccc2F)n1`: the concentration for half-maximal inhibition (IC50) was 16.5 µM. `C=C(NC(=O)C(=C)NC(=O)c1csc(C2=N[C@@H]3c4csc(n4)[C@H]4NC(=O)c5csc(n5)[C@H]([C@](C)(O)[C@@H](C)O)NC(=O)[C@H]5CSC(=N5)/C(=C/C)NC(=O)C([C@@H](C)O)NC(=O)c5csc(n5)C3(CC2)NC(=O)[C@H](C)NC(=O)C(=C)NC(=O)[C@H](C)NC(=O)C([C@@H](C)CC)N[C@@H]2C=Cc3c(C(C)O)cc(nc3[C@H]2O)C(=O)OC4C)n1)C(N)=O` (some centres not stated): the IC50 was > 50 µM (inactive).

`O=C(Nc1cccn(Cc2c(Cl)cccc2Cl)c1=O)c1ccccc1[N+](=O)[O-]`: the IC50 is 37 µM. As to `COc1c(Cl)ccc2c(=O)c3c(O)c4c5c(c3oc12)OCO[C@H]5[C@@H](OC)c1cc2c(c(O)c1-4)C(=O)N(C)[C@H](OC)[C@@H]2O`, the IC50 was > 50 µM (inactive). On to `COc1ccc(NC(=O)c2ccc(Nc3nnc(C)c4ccccc34)cc2)cc1`, for which the IC50 is > 50 µM (inactive). For `CS(=O)(=O)N1CCCc2cc(C(=O)Nc3ccc4c(c3)OCO4)ccc21`, the IC50 is > 50 µM (inactive). For the compound `COc1ccccc1NC(=O)c1cc(-c2ccccn2)nc2ccccc12`, the IC50 was 9.53 µM. `CC(c1ccccc1)c1nc(-c2ccc(=O)[nH]c2)no1` (configuration not stated): the IC50 is > 50 µM (inactive). With `COc1ccc(NC(=O)C2CC(=O)Nc3c(-c4ccc(Cl)cc4)cnn32)c(OC)c1` (configuration not stated), the IC50 was 9.36 µM.

With `CC(C)c1cc2c(c(O)c1O)[C@@]13CCCC(C)(C)[C@@H]1C[C@@H]2OC3=O`, the half-inhibitory concentration (IC50) is 19.5 µM. Next, `COc1ccc(NC(=O)Nc2cccc(-c3nnc(-c4ccccc4)o3)c2)cc1OC`: 10.9 µM; `O=[N+]([O-])c1ccc(NCc2ccc(-c3cccs3)s2)nc1`: 39.1 µM; `Cc1ccc(-n2nnc(C(=O)NC3CCCCC3)c2N)cc1`: 22.1 µM. As to `CCc1noc(-c2ccc(OCC(=O)Nc3ccc(C)cc3C)cc2)n1`, the half-inhibitory concentration (IC50) was 30.5 µM. Turning to `O=C(c1ccc(Cl)cc1)c1c[nH]cc1-c1c(F)cccc1Cl`, the IC50 was 36.3 µM. As to `COCC(C)Nc1ncc(-c2cnccn2)c(-c2ccc(C)s2)n1` (configuration not stated), the IC50 is > 50 µM (inactive). Next, `COc1c(C)c(C(O)C(C)O)c2[nH]c3ccc(CC=C(C)C)cc3c2c1O` (configuration not stated): 17.1 µM; `O=C(CN1C=NC2=NS(=O)(=O)c3ccccc3N21)Nc1cc(F)ccc1F`: 33.4 µM. `COc1cccc(NC(=O)c2ccc3noc(-c4ccc(Cl)cc4)c3c2)c1`: the concentration for half-maximal inhibition (IC50) was 37.4 µM. As to `COCCCNC(=O)Cn1c(=O)n(Cc2ccc(C(=O)NCc3ccccc3OC)cc2)c(=O)c2ccccc21`, the IC50 is > 50 µM (inactive). In the case of `COc1ccc(C)cc1NC(=O)C(NS(=O)(=O)c1ccc2c(c1)CCN2C(C)=O)C(C)C` (configuration not stated), the IC50 was > 50 µM (inactive). With `Cc1cccc(NC(=O)c2nn(C)c3ccccc3c2=O)c1`, the 50% inhibitory concentration (IC50) is 27.1 µM. The result for `O=C(CNC(=O)c1cccc(F)c1)Nc1nc2ccccc2[nH]1` reads 19.2 µM.

Take `Nc1ccccc1SC(CC(=O)c1ccc(Cl)cc1)c1ccsc1` (configuration not stated): the IC50 was > 50 µM (inactive). Regarding `N#Cc1ccc(NC(=O)Nc2cccn(Cc3c(F)cccc3Cl)c2=O)cc1`, the IC50 is 3.86 µM. Take `Cc1ccc2c(c1)-c1c(c(C(=O)N3CCN(c4ccccc4)CC3)nn1C)CS2`: the IC50 was > 50 µM (inactive). With `O=C(Nc1ccc2ccccc2n1)c1ccc(Cl)cc1`, the half-maximal inhibitory concentration (IC50) is 2.19 µM.

Take `O=C(Nc1ccc(SCc2nnc(-c3ccccc3)o2)cc1)C1CC1`: the IC50 is > 50 µM (inactive). `COc1ccc(/C=C/C(=O)Nc2c3c(nc4c2CCC4)CCCC3)cc1`: the half-maximal inhibitory concentration (IC50) is 15 µM. In the case of `COc1ncccc1CN1CCn2c(Cn3cncn3)cnc2C1C` (configuration not stated), the IC50 is > 50 µM (inactive).

Turning to `O=C(Nc1cc(Cl)ccc1-n1cncn1)c1ccc(S(=O)(=O)N2CCCC2)cc1`, the IC50 was > 50 µM (inactive). Turning to `Cc1nc(Nc2ncc(C)s2)cc(C2CN(C(=O)Cc3ccccc3)CCO2)n1` (configuration not stated), the IC50 is > 50 µM (inactive). On to `CC1(O)CC(=O)c2c(cc3cc(O)cc(O)c3c2O)C1` (configuration not stated), for which the IC50 was 0.115 µM. The result for `CCc1nnc(NC(=O)c2nnn(-c3ccccc3Cl)c2C)s1` reads > 50 µM (inactive); that for `CC1CC(=O)c2c(cc3c(-c4c(O)cc(O)c5c(O)c6c(cc45)OC(C)CC6=O)c(O)cc(O)c3c2O)O1` (configuration not stated), 0.486 µM; that for `COCCCNC(=O)c1ccc(Cn2c(=O)c3ccccc3n(CC(=O)Nc3ccc(OC)cc3)c2=O)cc1`, 29.7 µM. `N#Cc1ccc(Cc2ncc(C(F)(F)F)cc2Cl)s1`: the IC50 is > 50 µM (inactive). With `Cc1ccc(S(=O)(=O)N2CCCCC2)cc1NC(=O)Cc1cccc(F)c1`, the IC50 is > 50 µM (inactive). On to `O=C(CC(C(=O)Nc1ccc2c(c1)OCO2)C(=O)c1ccccc1)Nc1ccc(Cl)cc1F` (configuration not stated), for which the IC50 is 11.4 µM. The result for `O=C(Nc1ccc2c(c1)OCCO2)c1cc(CN2CCCC2)on1` reads > 50 µM (inactive). Next, `N#Cc1ccc(COC(=O)c2ccc3ccccc3n2)cc1`: > 50 µM (inactive). Take `CCOC(=O)c1sc2nc(CC(=O)OC)nc(NCc3ccco3)c2c1C`: the IC50 was > 50 µM (inactive). In the case of `CCN(C(=O)c1cc2c(s1)-c1ccccc1OC2)c1ccccc1F`, the IC50 was > 50 µM (inactive). Regarding `CN(C)c1ccc(CCN2CCc3nc4cccnc4cc3C2)cc1`, the IC50 was > 50 µM (inactive). Turning to `Cn1c(SCc2ccccc2)nnc1-c1csc(-c2ccccc2)n1`, the half-inhibitory concentration (IC50) is 39 µM. Turning to `CCc1nc(SCC(=O)Nc2ccccc2Cl)c2oc3ccccc3c2n1`, the half-inhibitory concentration (IC50) was 0.0527 µM. With `O=C(NCc1ccccc1Cl)c1ccc2cn[nH]c2c1`, the IC50 was > 50 µM (inactive). As for `c1ccc(-n2nnc(-c3noc(-c4ccccn4)n3)c2-c2ccncc2)cc1`, the concentration for half-maximal inhibition (IC50) was 46.6 µM. Turning to `O=C(/C=C/c1ccccc1)N1CCN(C2=NS(=O)(=O)c3ccccc32)CC1`, the IC50 was > 50 µM (inactive). For the compound `O=C(NC1CC1)c1ccnn1-c1ccc2ccc(-c3ccncc3)cn12`, the IC50 was > 50 µM (inactive). The result for `Cc1ccc(-n2cc(C(=O)NCc3cccnc3)nn2)cc1C` reads 22.3 µM; that for `Nc1nc(OCc2ccccc2)c2[nH]c(/C=C/c3cccs3)nc2n1`, 32.5 µM; that for `Cn1c(-c2nnc(SCC(=O)Nc3ccccc3F)o2)cc2ccccc21`, 21.3 µM. With `NC(=O)c1nnn(-c2ccc(NC(=O)c3ccc(F)c(F)c3)cc2)n1`, the concentration for half-maximal inhibition (IC50) was 10.6 µM. Consider `O=c1c(OC2O[C@H](CO)[C@H](O)[C@H](O)[C@H]2O)c(-c2ccc(O)cc2)oc2cc(O)cc(O)c12` (some centres not stated), for which the IC50 was 46.8 µM.

Turning to `CC(C)c1cc(NCc2ccccc2)n2nc(-c3cccnc3)nc2n1`, the IC50 is 18.9 µM.

As to `COc1ccc(NC(=O)c2nnn(-c3cccc(C)c3)c2C)cc1`, the IC50 is > 50 µM (inactive). As for `O=C(COc1cc([N+](=O)[O-])cc2cccnc12)NCCC1=CCCCC1`, the IC50 was 23.5 µM.

`Cc1ccc(Cl)cc1NC(=O)COC(=O)c1ccc2ccccc2n1`: the IC50 was > 50 µM (inactive). For `COc1ccccc1NC(=O)Cn1cc(C(=O)c2ccc(C)cc2)c(=O)c2cc(Cl)ccc21`, the IC50 is 16.6 µM. `CCCCN1CC(C(=O)Nc2ccc(C(=O)Nc3ccc(Cl)cc3)cc2)CC1=O` (configuration not stated): the IC50 is 16.5 µM. On to `Cc1cc(Cl)ccc1NC(=O)c1cc(-c2cccnc2)n[nH]1`, for which the IC50 was > 50 µM (inactive). The result for `O=c1[nH]c2ccc(S(=O)(=O)Nc3ccc(O)c4ccccc34)cc2[nH]1` reads 4.09 µM. `COc1ccccc1OCCNC(=O)c1cc(C2CC2)nc2c1cnn2C(C)C`: the IC50 was > 50 µM (inactive). For `COCCCn1c(C(=O)Nc2ccccc2OC)cc2c(=O)n3ccccc3nc21`, the half-inhibitory concentration (IC50) is 12.4 µM. In the case of `COC(=O)CC1CC23OC2(C(=O)c2c(O)cccc2C3=O)C(C)O1` (configuration not stated), the IC50 is 0.161 µM. In the case of `CN1CCN(C(=O)c2ccn(-c3ccc4ccc(-c5cnn(C)c5)cn34)n2)CC1`, the IC50 was > 50 µM (inactive). As to `CC1CCc2c(sc3ncnc(NC4CCN(CC(N)=O)CC4)c23)C1` (configuration not stated), the IC50 was > 50 µM (inactive). As for `O=C(CSc1nnc2n1CCCCC2)Nc1ccc2[nH]c(=O)[nH]c2c1`, the 50% inhibitory concentration (IC50) is 12 µM. With `O=C(NCc1ccc(-c2nc3cnccc3o2)cc1)c1ccccc1Br`, the 50% inhibitory concentration (IC50) is 38.6 µM. As for `CC1=CN2C(=N)/C(=C/c3cn(Cc4ccc(Cl)cc4)c4ccccc34)C(=O)N=C2S1`, the IC50 was > 50 µM (inactive). Take `Cc1ccc(Nc2nc(C(=O)NCc3ccc4c(c3)OCO4)cc3occc23)cc1Cl`: the IC50 was 28.1 µM. With `O=c1[nH]c2ccccc2cc1CN(Cc1ccco1)S(=O)(=O)c1ccc(F)cc1`, the IC50 was > 50 µM (inactive). With `Cc1cccc(N2C(=O)/C(=C\c3ccc4c(c3)OCCO4)c3ccccc3C2=O)c1`, the IC50 is 23.6 µM. Turning to `O=C(NCc1ccncc1)C1CCN(c2cncnc2N2CCCCC2)CC1`, the IC50 was > 50 µM (inactive).

Regarding `COC(=O)COc1ccc(/C=N/NC(=O)c2ccc(CN3CCc4ccccc4C3)cc2)cc1`, the IC50 is 14.5 µM. Next, `Cn1c(=O)/c(=C/c2ccccc2)[nH]c(=O)/c1=C/c1ccccc1`: 5.8 µM. Regarding `COc1cccc2cc(C(=O)Nc3ccc4c(c3)OCCO4)oc12`, the IC50 was > 50 µM (inactive). Next, `O=C(NC1(O)C(=O)c2ccccc2C1=O)c1ccc(-c2csnn2)cc1`: 19.5 µM; `C[C@H](NC(=O)Cc1ccccc1F)c1nc2cc(-c3ccccc3F)ncn2n1`: > 50 µM (inactive); `COc1ccc(NC(=O)c2ccccc2OCC(=O)Nc2ccccc2C(F)(F)F)c(C)c1`: 26.9 µM. Next, `Cc1ccc2[nH]c3c(=O)n(CC4CCCO4)cnc3c2c1` (configuration not stated): 21.5 µM. As to `CC(C)=CCC/C(C)=C/Cc1c(O)cc2c(c1O)C(=O)OC2`, the IC50 was 1.7 µM.

Source of the values: PubChem BioAssay AID1645864 (Buhrlage Lab, Dana-Farber Cancer Institute and Novartis …, 2021).
